EC50 and AC50 data for 26 compounds are collected here from ChEMBL document CHEMBL1201862, “PubChem BioAssay data set” (2004).

Test [1] concerns the target T1, Short transient receptor potential channel 4 (Mus musculus, UniProt Q9QUQ5).
T1 sequence (Q9QUQ5 whole entry): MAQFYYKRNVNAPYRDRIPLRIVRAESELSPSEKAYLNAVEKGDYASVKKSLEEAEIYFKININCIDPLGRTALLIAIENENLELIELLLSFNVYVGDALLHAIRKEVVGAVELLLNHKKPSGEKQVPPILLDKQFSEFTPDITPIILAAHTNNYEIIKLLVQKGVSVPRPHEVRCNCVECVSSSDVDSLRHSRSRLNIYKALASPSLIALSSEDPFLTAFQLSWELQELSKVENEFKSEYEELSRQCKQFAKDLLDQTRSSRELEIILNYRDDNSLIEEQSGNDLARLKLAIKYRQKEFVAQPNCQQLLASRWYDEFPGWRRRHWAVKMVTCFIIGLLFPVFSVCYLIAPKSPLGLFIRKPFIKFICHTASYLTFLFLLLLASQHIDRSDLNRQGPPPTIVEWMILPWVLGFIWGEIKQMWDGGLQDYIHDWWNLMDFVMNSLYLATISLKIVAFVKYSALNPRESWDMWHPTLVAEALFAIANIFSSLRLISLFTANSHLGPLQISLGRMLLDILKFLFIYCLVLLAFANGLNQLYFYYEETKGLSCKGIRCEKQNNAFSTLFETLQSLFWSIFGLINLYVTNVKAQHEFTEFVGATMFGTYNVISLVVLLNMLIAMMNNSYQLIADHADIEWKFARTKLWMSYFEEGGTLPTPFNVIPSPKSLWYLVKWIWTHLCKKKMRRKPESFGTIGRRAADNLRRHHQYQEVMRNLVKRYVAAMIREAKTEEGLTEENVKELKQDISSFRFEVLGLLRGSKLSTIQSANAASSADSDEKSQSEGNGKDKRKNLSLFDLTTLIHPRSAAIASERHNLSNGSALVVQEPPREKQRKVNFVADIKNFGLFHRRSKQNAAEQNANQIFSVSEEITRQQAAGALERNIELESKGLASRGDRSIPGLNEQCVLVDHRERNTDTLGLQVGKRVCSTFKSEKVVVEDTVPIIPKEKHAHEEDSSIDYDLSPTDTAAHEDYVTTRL
Briefly: mouse TRPC4 channel inhibitors, dose response, cell-based, HEK293 TRPC4/mu-opioid, Fluo-4 calcium (AID 434942).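 Also: potency of inhibitors blocking the TRPC4 calcium response.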 The class given is functional.

Test [2] addresses Cytochrome P450 2C19 (Homo sapiens, UniProt P33261). The experiment in a line: Cytochrome panel assay with activity outcomes. Panel member name: p450-cyp2c19 Compounds with AC50 equal or less than 10 uM are considered active. It is filed as functional. The settings on record: read-out: AC50.
Test [3] concerns the target Cytochrome P450 2D6 (Homo sapiens, UniProt P10635).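 Also: CYP2D6 member of a cytochrome P450 panel assay.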
Test [4] is described as follows: C. albicans growth with fluconazole, confirmation, fluorescence, retest (AID 2467). The class given is functional, cell-based.
Test [5] is described as follows: NIH-3T3 fibroblast cytotoxicity, dose response, cytotoxicity control, cell-based, fluorescence, Alamar Blue, secondary assay (AID 2327).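 Also: NIH-3T3 mouse fibroblasts cultured with fluconazole at 8 µg/mL.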 The class given is functional.
Test [6] is described as follows: cytotoxicity toward NIH3T3 fibroblasts, dose response, counter-screen, cell-based, ATP luminescence, mouse fibroblasts (AID 2010).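 Also: cells exposed to compound for about 90 hours before reading.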 The class given is functional.
Test [7] is described as follows: inhibitors of intracellular T. cruzi replication, confirmation, NIH3T3 host cells, beta-gal luminescence (AID 2044).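 Also: intracellular parasites grown in NIH/3T3 mouse fibroblasts as host cells; luminescent beta-galactosidase reporter signal from transgenic T. cruzi replicating inside host cells; inhibitors lower the luminescence signal.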 It is filed as functional, cell-based.
In test [8] the target is T2, Protein RecA (Mycobacterium tuberculosis, UniProt P9WHJ3).
T2 sequence (P9WHJ3 whole entry): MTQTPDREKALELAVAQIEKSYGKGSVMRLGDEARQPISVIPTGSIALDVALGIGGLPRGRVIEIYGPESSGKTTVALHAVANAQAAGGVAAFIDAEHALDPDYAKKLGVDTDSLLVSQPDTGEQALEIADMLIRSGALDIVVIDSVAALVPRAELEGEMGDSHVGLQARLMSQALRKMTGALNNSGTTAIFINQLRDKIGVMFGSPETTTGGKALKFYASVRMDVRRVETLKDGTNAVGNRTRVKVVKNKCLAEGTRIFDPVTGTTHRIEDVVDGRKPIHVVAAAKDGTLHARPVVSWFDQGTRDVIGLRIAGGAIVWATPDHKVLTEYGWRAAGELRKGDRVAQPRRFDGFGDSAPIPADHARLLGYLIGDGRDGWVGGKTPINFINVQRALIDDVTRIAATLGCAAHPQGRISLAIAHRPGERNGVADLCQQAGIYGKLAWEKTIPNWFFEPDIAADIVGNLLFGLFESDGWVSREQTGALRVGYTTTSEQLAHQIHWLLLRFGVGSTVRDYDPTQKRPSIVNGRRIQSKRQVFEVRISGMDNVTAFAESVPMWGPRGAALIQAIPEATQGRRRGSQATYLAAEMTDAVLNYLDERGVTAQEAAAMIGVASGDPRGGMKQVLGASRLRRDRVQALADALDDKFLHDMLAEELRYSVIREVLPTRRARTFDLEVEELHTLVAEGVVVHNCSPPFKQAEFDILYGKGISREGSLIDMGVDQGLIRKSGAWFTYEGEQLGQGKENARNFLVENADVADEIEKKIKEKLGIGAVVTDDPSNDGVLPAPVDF
The experiment in a line: Fluorescence Cell-Free Homogeneous Dose Retest to Identify Inhibitors of RecA-Intein Splicing Activity. [Related pubchem assays (depositor defined):AID2097, AID2223, AID489010, AID492950]. The class given is functional.

Test [9] in a line: growth suppression of beta-catenin-knockout colon cells, dose response, cell-based, HCT116, human colon tumor (AID 1045).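 Also: HCT116 colon tumor cells with beta catenin knocked out; cells exposed to compound for 60 hours.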 The class given is functional.
Test [10] concerns the target T3, Replicative DNA helicase DnaB (Mycobacterium tuberculosis, UniProt P9WMR3).
T3 sequence (P9WMR3 whole entry): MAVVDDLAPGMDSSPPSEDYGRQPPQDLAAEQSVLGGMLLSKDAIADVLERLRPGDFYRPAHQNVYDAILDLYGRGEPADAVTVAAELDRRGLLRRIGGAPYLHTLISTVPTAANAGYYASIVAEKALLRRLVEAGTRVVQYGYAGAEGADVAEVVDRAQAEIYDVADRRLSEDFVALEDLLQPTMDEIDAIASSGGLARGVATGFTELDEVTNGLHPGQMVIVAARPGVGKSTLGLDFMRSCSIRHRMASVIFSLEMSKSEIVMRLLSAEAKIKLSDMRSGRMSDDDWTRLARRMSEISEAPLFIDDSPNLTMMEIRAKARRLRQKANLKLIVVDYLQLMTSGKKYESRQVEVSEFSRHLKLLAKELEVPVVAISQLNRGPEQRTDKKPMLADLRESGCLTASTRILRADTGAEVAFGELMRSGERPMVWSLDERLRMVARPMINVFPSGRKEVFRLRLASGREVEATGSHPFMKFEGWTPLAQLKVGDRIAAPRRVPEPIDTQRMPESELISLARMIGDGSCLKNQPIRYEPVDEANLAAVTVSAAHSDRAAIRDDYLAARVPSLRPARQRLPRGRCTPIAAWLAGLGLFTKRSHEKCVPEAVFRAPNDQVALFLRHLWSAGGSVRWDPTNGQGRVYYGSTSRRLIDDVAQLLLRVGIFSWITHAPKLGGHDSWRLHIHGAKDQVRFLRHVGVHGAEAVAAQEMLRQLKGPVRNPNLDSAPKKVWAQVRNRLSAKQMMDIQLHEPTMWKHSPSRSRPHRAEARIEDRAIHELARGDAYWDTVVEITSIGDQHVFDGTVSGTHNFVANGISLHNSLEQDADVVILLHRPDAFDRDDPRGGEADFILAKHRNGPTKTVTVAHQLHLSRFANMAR
The experiment in a line: DnaB intein splicing inhibitors, dose response, biochemical, cell-free fluorescence (AID 449749). The class given is functional.

Test [11] can be described thus: growth suppression of PTEN-null colon cells, dose response, cell-based, HCT116 PTEN knockout (AID 1047).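 Also: HCT116 colon tumor cells with PTEN knocked out; cells exposed to compound for 60 hours before readout; potency for loss of cell viability measured by luminescence.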 The class given is functional.
For test [12], the target named is Cytochrome P450 2C9 (Homo sapiens, UniProt P11712).
The target of test [13] is T4, Heat shock factor protein 1 (Mus musculus, UniProt P38532).
T4 sequence (P38532 whole entry): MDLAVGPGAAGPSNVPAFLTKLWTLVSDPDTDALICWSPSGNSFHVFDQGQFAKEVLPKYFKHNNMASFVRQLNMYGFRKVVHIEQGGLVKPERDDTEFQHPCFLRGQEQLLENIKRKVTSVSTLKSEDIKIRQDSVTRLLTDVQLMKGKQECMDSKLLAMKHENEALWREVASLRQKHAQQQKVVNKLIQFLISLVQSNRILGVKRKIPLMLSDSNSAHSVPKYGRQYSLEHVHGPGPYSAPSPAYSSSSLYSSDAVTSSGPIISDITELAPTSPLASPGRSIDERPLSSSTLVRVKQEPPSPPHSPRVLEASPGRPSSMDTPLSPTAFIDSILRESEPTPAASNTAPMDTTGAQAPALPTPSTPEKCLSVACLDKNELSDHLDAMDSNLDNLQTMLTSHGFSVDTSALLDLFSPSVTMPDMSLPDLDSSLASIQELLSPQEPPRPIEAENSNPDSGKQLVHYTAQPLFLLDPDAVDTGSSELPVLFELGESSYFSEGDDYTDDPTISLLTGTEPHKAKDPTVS
The experiment in a line: HSF1 potentiators in luciferase reporter cells, confirmation, cell-based, NIH3T3, luminescence, dose retest (AID 435004).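 Also: stress induced by proteasome inhibitor MG132 added 30 min after compound; luciferase reporter driven by HSF1 response element in NIH3T3 cells; actives raise luminescence as potentiators of the MG132 stress response.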 It is filed as functional.

Activity calls are given as the source filed them. Where only a bound is given, the exact number is not on record here.

Chain of Cytochrome P450 2D6 (P10635 whole entry): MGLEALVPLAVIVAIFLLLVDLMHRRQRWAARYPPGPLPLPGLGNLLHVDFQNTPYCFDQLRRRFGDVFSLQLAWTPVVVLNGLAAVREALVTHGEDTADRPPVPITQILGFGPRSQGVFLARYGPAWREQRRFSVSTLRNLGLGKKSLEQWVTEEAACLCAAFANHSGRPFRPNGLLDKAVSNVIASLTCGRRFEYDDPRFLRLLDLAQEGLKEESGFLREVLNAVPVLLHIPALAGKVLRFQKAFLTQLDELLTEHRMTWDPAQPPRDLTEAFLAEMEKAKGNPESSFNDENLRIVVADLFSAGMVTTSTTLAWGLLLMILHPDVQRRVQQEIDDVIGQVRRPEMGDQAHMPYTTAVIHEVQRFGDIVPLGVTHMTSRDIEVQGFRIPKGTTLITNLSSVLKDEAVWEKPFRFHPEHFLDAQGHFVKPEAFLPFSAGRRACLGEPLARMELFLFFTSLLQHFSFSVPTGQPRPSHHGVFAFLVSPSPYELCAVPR
Chain of Cytochrome P450 2C19 (P33261 whole entry): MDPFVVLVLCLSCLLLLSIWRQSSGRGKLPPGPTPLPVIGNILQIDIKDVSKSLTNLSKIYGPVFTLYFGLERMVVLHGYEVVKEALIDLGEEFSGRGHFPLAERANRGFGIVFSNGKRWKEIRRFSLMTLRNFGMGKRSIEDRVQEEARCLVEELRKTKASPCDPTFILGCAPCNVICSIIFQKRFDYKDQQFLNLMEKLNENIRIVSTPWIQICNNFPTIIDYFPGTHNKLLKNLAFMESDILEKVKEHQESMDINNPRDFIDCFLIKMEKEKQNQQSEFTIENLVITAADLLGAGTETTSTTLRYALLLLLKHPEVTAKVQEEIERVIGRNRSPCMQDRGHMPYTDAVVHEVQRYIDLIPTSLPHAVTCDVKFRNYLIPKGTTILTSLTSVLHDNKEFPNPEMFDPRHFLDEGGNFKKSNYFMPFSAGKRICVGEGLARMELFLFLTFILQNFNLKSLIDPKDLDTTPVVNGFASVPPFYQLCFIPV
Chain of Cytochrome P450 2C9 (P11712 whole entry): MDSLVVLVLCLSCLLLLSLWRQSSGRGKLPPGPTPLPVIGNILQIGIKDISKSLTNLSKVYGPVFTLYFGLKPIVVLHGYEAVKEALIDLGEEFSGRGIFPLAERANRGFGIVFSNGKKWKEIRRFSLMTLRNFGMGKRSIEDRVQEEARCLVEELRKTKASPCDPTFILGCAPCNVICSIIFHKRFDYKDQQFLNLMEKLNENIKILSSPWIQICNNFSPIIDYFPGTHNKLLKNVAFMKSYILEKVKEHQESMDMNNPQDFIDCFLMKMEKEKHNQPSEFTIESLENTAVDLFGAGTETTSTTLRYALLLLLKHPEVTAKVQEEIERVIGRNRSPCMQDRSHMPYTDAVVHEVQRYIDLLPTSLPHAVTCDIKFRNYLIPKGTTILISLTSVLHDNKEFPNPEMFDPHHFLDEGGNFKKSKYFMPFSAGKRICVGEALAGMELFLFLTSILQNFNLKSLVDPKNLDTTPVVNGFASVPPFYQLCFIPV

`COc1ccc(C2NC(C(=O)O)Cc3c2[nH]c2ccccc32)cc1CN1CCN(c2ccc(F)cc2)CC1` (stereo not given): the 50% effective concentration (EC50) in [1] was 0.531 µM (active).
On the same count and under the same terms, next, `Cc1ccc(Cn2c(=N)n(CC(O)c3ccco3)c3ccccc32)cc1` (stereo not given): 1.88 µM (active).
On to `COc1cccc(C(=O)C2CCCN(Cc3cccn3-c3ccccn3)C2)c1` (stereo not given), for which, in test [1], the EC50 is 6.68 µM (active).
In the case of `CC(=O)Nc1ccc(-c2nnc(SCC(=O)c3ccc4c(c3)Cc3ccccc3-4)n2C)cc1`, the AC50 in test [2] was 6.31 µM (inconclusive); in [3], 14.1 µM (inconclusive).
For `C=CCSc1nc(-c2ccc(OCCC)cc2)n[nH]1`, the 50% effective concentration (EC50) was > 38 µM (not active) in [4] and > 150 µM (inactive) in [5].
Take `COCCn1c(SCc2ccc(OC)c(F)c2)nc2ccccc2c1=O`: the EC50 in [6] is 31.8 µM (active); in [1] it was 2.99 µM (active); in [7] it was 2.24 µM (active).
In the case of `CC(C)c1noc2ncc(C(=O)c3cc(Cl)cc(Cl)c3O)cc12`, the EC50 in test [4] was 3.63 µM (active); in [5], > 160 µM (inactive).
In the case of `CCCOc1ccc(Br)cc1/C=N/O`, the EC50 in test [1] is 1.68 µM (active).
As to `CN(C)C(=O)c1ccc2c(c1[N+](=O)[O-])C(=O)c1ccccc1C2=O`, the EC50 in test [8] was 0.558 µM (active); in [9], 105 µM (active); in test [11], 87 µM (active). Also, in [10], the AC50 is 57.9 µM (active).
On to `Cc1ccc(S(=O)(=O)Nc2nc(C)c(NC(=O)Nc3ccc(Cl)cc3Cl)s2)cc1`, for which, in test [3], the half-maximal activity concentration (AC50) is 28.2 µM (inconclusive).
Take `COc1ccc(C(CNc2ccc(C(F)(F)F)cn2)N(C)C)cc1OC` (stereo not given): the concentration giving a half-maximal response (EC50) in [1] was 0.299 µM (active).
Still for that read-out and setting: to `CN(Cc1cnn(C)c1)C(=O)c1ccc(OC2CCN(CCc3ccccc3)CC2)cc1` belongs 1.5 µM (active); to `Cc1ccc(C[n+]2cc(-c3ccc(Cl)cc3)n3c2CCC3)cc1`, 2.37 µM (active).
Turning to `CN(C)c1nccc(N(Cc2ccccc2)Cc2ccccc2)c1C#N`, the concentration at half-maximal activity (AC50) in test [3] was 10 µM (inconclusive).
As for `CCC1CCc2c(c3ccccc3[nH]c2=O)O1` (stereo not given), the half-maximal activity concentration (AC50) was 17.8 µM (inconclusive) in test [2] and 39.8 µM (inconclusive) in test [3].
As for `O=c1cc(N2CCCCC2)c(-c2ccccc2)nn1Cc1ccccc1Cl`, in test [3], the AC50 is 28.2 µM (inconclusive).
Consider `Cc1cc(-c2sccc2C)nc(-n2cccc2)n1`, for which the EC50 in test [1] was 7.5 µM (active).
With `CCOc1ccc(N2C(=O)c3cccnc3C2=O)cc1`, the AC50 is 7.94 µM (inconclusive) in [12] and 0.178 µM (inconclusive) in [3].
As to `CCOc1cc(-c2nc(-c3cc(OC)c(OC)c(OC)c3)no2)cc(OCC)c1OCC`, the concentration giving a half-maximal response (EC50) in test [4] was > 38 µM (not active); in test [5], > 160 µM (inactive).
Take `O=c1c2ccccc2nc(-c2ccc(Br)cc2)n1Cc1ccccc1`: in test [3], the AC50 was 25.1 µM (inconclusive).
For `CCOC(=O)C1CCN(C2CCN(C(=O)c3oc4c(C)c(C)ccc4c3C)CC2)CC1`, the 50% effective concentration (EC50) in test [1] was 4.22 µM (active).
Turning to `CC12CCC(C(=O)NNc3ccc([N+](=O)[O-])cc3)(CC1=O)C2(C)C` (stereo not given), the results for the EC50 in test [4] and in test [5] were > 38 µM (not active) and > 150 µM (inconclusive), respectively.
For the compound `O=C(c1ccncc1)N1CCC2(CC1)CN(Cc1cc(C(F)(F)F)cc(C(F)(F)F)c1)C2`, the AC50 in test [3] is 31.6 µM (inconclusive).
As to `COc1ccc2[nH]cc(CCNc3cc(-c4ccccc4C(F)(F)F)ncn3)c2c1`, the concentration at half-maximal activity (AC50) in test [12] was 1 µM (inconclusive); in [3] it was 20 µM (inconclusive).
Take `CN(C)CCN1C(=O)C2C(C(=O)Nc3cc(Cl)cc(Cl)c3)C3C=CC2(O3)C1C(=O)NC1CCCCC1` (stereo not given): the EC50 was > 260 µM (inactive) in test [13] and 6.68 µM (active) in test [1].
Turning to `CCOC(=O)c1oc2ccccc2c1CN1CCCCC1`, in test [1], the concentration giving a half-maximal response (EC50) was 4.22 µM (active).
